Results: patent US20220331492A1, “COMPOSITION AND METHOD FOR CONTROLLED DRUG RELEASE FROM A TISSUE” (Bard Shannon Limited, priority 2017, published 2022)

Legend:
[1] = cited from earlier work
[2] = mixed with fibrin glue; cited from earlier work
[3] = In vitro drug release from antibiotic-encapsulated PLGA microparticles; type: physicochemical; details: drug encapsulated in free PLGA (50:50) microparticles; buffer, 37° C., 120 rpm
Description: The amount of antibiotic was determined by dissolving 20 mg beads in 1 mL NaOH 1 M at 37° C. After complete dissolution, 1 mL of HCl 1 M was added to neutralize the pH. […] A mixture of NaOH 1 M and HCl 1 M (1:1) was used as a blank.
The gentamicin concentration was determined by a colormetric assay: 0.5 mL of the gentamicin solution was mixed with 0.35 mL of sodium phosphate buffer (50 mM, pH 7.4) and 0.15 mL of 1.25% ninhydrin solution. The reaction occurred at 95° C. for 15 minutes and the tubes were then cooled in an ice-water bath for 10 min. The UV-visible spectra over the wavelength range of 200-700 nm were measured using the mixture of ninhydrin and the respective buffer solution at the appropriate concentrations as the blanks. The gentamicin concentration was calculated at the maximal absorbance (λmax˜315 nm).
The microspheres (25 mg of ciprofloxacin-encapsulated PLGA beads, 80 mg of gentamicin encapsulated PLGA beads, 40 mg of vancomycin-encapsulated PLGA beads) were placed into glass vials filled with 10 mL solution (PBS for vancomycin and ciprofloxacin-encapsulated PLGA beads and sodium phosphate buffer for gentamicin encapsulated PLGA beads). The vials were placed in an orbital shaker incubator at 37° C., where they were shaken at 120 rpm. […] Finally, the 1.5 mL of suspension were returned back into the glass vials. For gentamicin, the reaction with ninhydrin is irreversible. 0.5 ml, of the solution was replaced each day with fresh sodium phosphate buffer to maintain a constant volume.

[4] = Release of ciprofloxacin from PLGA microparticles embedded in enzymatically crosslinked gelatin matrix; type: physicochemical
Description: Entrapment of microparticles in enzymatically crosslinked gelatin hydrogel was performed as follows.
This solution was mixed with 5.0 gr of gelatin solution. 0.25 gr of the mixture was cast in a glass vial, and curing occurred at 37° C. for 15 min. 5 mL of PBS was added to the vial to wash the gel. An additional 5 mL of PBS was added and the vial was placed in an orbital shaker incubator at 37° C. where it was shaken at 120 rpm. Once a day, 1.5 mL of the cured gel extract was centrifuged and 1 mL of the supernatant was taken to spectrophotometer to measure the drug concentration. After measurement, the 1.5 mL extract was returned back into the glass vials, crosslinked gelatin without beads was casted according to the same procedure and the extract was used as blank.

[5] = system: Bacillus subtilis (ATCC 6633); test: Agar disk-diffusion (Kirby-Bauer) assay of crosslinked gelatin discs containing antibiotic PLGA beads; type: cell-based; details: crosslinked gelatin hydrogel containing drug-loaded PLGA MPs; gels incubated in saline for 14 days
Description: (§1) The bacteria used was Bacillus subtilis, which serves as a model microorganism for gram positive bacteria.
3 discs of 0.2 gr crosslinked gelatin containing 2% vancomycin-gentamicin-encapsulated PLGA beads were casted as previously reported 3 additional discs without beads were also casted and used as negative control. Filters containing 30 μg antibiotics (gentamicin or vancomycin) were used as positive controls.
The gel discs with and without beads and the filter containing antibiotics were placed in LB agar plates on which 100 μl of bacterium suspension had been evenly spread. The petri dishes were placed in an orbital shaker incubator at 37° C. where a horizontal shake was performed at 120 rpm.

[6] = system: Bacillus subtilis (ATCC 6633); test: Microdilution assay of hydrogel disc extracts versus MIC; type: cell-based; details: extracts of crosslinked gelatin hydrogel containing 2% drug-loaded PLGA beads; throughout the study (1-14 days)
Description: as §1
6 discs of 0.2 gr crosslinked gelatin containing 2% vancomycin/gentamicin-encapsulated PLGA beads were casted in plastic mold of 12 mm diameter. After […] of curing at 37° C., the gels were separately placed in glass vial filled with 1.5 mL sodium phosphate buffer. The vials were placed in an incubator at 37° C. After 1, 2, 4, 7, 11 and 14 days, the gel was taken out and the hydrogel extract was frozen until test.
The antibacterial activity of the hydrogel discs extracts was studied by employing a microdilution method (FIG. 3b). Plates were prepared under sterile conditions. 100 μL of test materials were pipetted into the first column of the sterile 96-well plate. To all other wells 50 μL of saline was added. Serial dilutions were performed using a multichannel pipette. Tips were discarded after use such that each well had 50 μL of the test material in serially descending concentrations. […]
After 24 hours, the OD of each well was measured at 600 nm to determinate the presence or absence of bacterium. The lowest concentration at which […] was taken as the MIC value.

Row | Compound | release kinetics after initial burst release [3] | bacteria killing (ring around the gel) in agar diffusion assay [5] | concentration of the eluted antibiotic drug relative to MIC [6] | other results
1 | CCOC(=O)c1ccc(N)cc1 [Benzocaine] |  |  |  | water solubility [1]: very low
2 | Cc1nnc(SCC2=C(C(=O)O)N3C(=O)[C@@H](NC(=O)Cn4cnnn4)[C@H]3SC2)s1 [cefazolin] |  |  |  | release time [2]: 2 days
3 | O=C(O)c1cn(C2CC2)c2cc(N3CCNCC3)c(F)cc2c1=O [ciprofloxacin] | zero order kinetics |  |  | time over which the drug eluted ([4]; PLGA MPs embedded in in situ cross-linkable gelatin matrix): 2 weeks; release rate of MPs embedded in gelatin matrix compared to free MPs ([4]; PLGA MPs embedded in in situ enzymatically crosslinked gelatin, PBS, 37° C.): somewhat slower
4 | CN[C@H](CC(C)C)C(=O)N[C@H]1C(=O)N[C@@H](CC(N)=O)C(=O)N[C@H]2C(=O)N[C@H]3C(=O)N[C@H](C(=O)N[C@H](C(=O)O)c4cc(O)cc(O)c4-c4cc3ccc4O)[C@H](O)c3ccc(c(Cl)c3)Oc3cc2cc(c3O[C@@H]2O[C@H](CO)[C@@H](O)[C@H](O)[C@H]2O[C@H]2C[C@](C)(N)[C@H](O)[C@H](C)O2)Oc2ccc(cc2Cl)[C@H]1O [vancomycin] | zero order kinetics | still had enough drug remaining within the matrix to induce bacteria killing | considerably above MIC | 
5 | gentamycin | zero order kinetics | still had enough drug remaining within the matrix to induce bacteria killing | considerably above MIC | 
